Source: patent US20260083769A1, “2-Aminopropane-1,3-Diol-Capped Cationic Peptoids for Nucleic Acid Delivery” (NUTCRACKER THERAPEUTICS, INC., priority 2022, published 2026)
Entries after “also recorded” stand apart in the source; their conditions may differ. Read-outs that look alike come from different tables or passages of the source. Where a SMILES comes first, the peptide text is derived from it. [ ]: non-standard residue; d: D form. N(2-ethylhexyl)Gly = CCCCC(CC)CNCC(=O)O; Gly(N-dodecyl) = CCCCCCCCCCCCNCC(=O)O; N(CH(CH2OH)2)Gly = O=C(O)CNC(CO)CO; NHexGly = CCCCCCNCC(=O)O

Legend:
[1] = Particle size and polydispersity (PDI) of delivery vehicles by dynamic light scattering; format: physicochemical; conditions: Table 5; delivery vehicle comprising the peptoid, Formulation D22, fLuc mRNA
Summary of the method: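 Delivery vehicle complexes were diluted in PBS to 2 ng/μL and measured by DLS. The cumulant fit of the correlation function gave PDI and hydrodynamic diameter in nm.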

[2] = Zeta potential of delivery vehicles; format: physicochemical; conditions: Table 5; delivery vehicle, pH 7 buffer; in mV (unit assumed)
Description: In one particular instance, the size and polydispersity (PDI) of delivery vehicles was measured by dynamic light scattering in PBS using a DynaPro® plate reader III. The zeta potential of delivery vehicles was determined using Nano-ZS™ particle analyzer. Zeta sample was diluted to 30 uM total lipid in a weakly buffered solution of 10 mM HEPES, 10 mM MES, 10 mM ammonium acetate pH 7. Measurements were collected in duplicate for over 30 run with the voltage manually set to […]

[3] = RBC hemolysis as metric for fusogenicity; format: cell-based; conditions: sheep red blood cells (RBCs), 5% v/v, Table 5, delivery vehicle, 37° C. 45 min
Summary of the method: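 Sheep RBCs at 5% v/v in 20 mM citrate/140 mM NaCl pH 5.5 or PBS, exposed to LNPs at […] in well, 37 °C for 45 min. Supernatant absorbance at 425 nm; % hemolysis normalized to 2% Triton full lysis and buffer-only control.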

BALB/c mice = experiment: Serum anti-RSV antibody (aRSV) after IV dose of aRSV mRNA delivery vehicles, IgG ELISA; format: in vivo; conditions: for serum levels of aRSV (secreted protein expression): BALB/c mice, IV, 0.75 mg/kg mRNA, after 24 hours, IgG ELISA; for secreted protein (serum aRSV) expression in vivo, comparison of monomer order isomers: Compound 31 versus Compound 41
Description: For imaging studies, female BALB/c mice (6-8 weeks old) were obtained and acclimatized for a minimum of 3 days prior to experiments. The animals were maintained on a 12 hour light cycle in a temperature and humidity controlled room. A daily health check was performed as well as food and water check. For dosing, mice were injected with 2.5 μg fLuc mRNA-containing delivery vehicles intravenously in 100 μL total injection volume. At 6 hours post-injection, mice were anesthetized with isoflurane, and injected intraperitoneally with 30 mg/mL D-luciferin at a dose of 10 μL per gram bodyweight intraperitoneally. Imaging was done 10 minutes post D-luciferin injection using an IVIS® Spectrum Imaging System. Immediately after in vivo imaging, mice were terminally bled by cardiac puncture and euthanized. The organs of interest were harvested, placed in black 24-well plates, and imaged. Living Image® software was used to quantify the total photon flux in regions of interest. For secreted protein studies, mice were injected with aRSV mRNA-containing delivery vehicles intravenously in 100 μL total injection volume. Mice were euthanized after 24 hours, with serum collection at 6 and 24 hours post-injection. Serum was used to quantify secreted aRSV levels using ELISA following the manufacturer's recommendation for IgG using a standard curve generated from aRSV protein.
To understand how the delivery vehicles disclosed herein (e.g., delivery vehicles comprising compounds of Formula (I)) performed as systemic delivery vehicles, the top four candidates for firefly luciferase expression from the optimized DOE model (Compounds 12, 41, 34, and 35) were evaluated for their ability to produce anti-RSV antibody in BALB/c mice. Anti-RSV was chosen as a model target due to the availability of therapeutic benchmarking information and sequence availability. Delivery vehicles comprising aRSV were formulated from two mRNA molecules encoding the heavy and light chain at a 2:1 mass ratio. All delivery vehicles were below 120 nm in size with encapsulation greater than 85% (Table 7).
Delivery vehicles were dosed intravenously in BALB/c mice at a total dose of 0.75 mg/kg mRNA and serum levels of aRSV were compared after 24 hours by an IgG ELISA.

[4] = pH 5, read-out: Hemolysis at pH 5
[5] = pH 7, read-out: Hemolysis at pH 7

Row | Compound | PDI [1] | Particle Size (nm) [1] [nm] | Zeta Potential [2] | hemolysis at 45 min, 150 mM total lipid [3, 4] [%] | hemolysis at 45 min, 150 mM total lipid [3, 5] [%] | serum levels of aRSV (secreted protein expression) (BALB/c mice) | secreted protein (serum aRSV) expression in vivo, comparison of monomer order isomers (BALB/c mice) | serum levels of aRSV (secreted protein expression) (BALB/c mice; 0.75 mg/kg) | dependence of serum aRSV titers on injected dose (BALB/c mice; Compound 41 in Formulation D22, 0.3, 0.75, and 1.5 mg/kg) | time aRSV titers were observed in the serum (BALB/c mice; Compound 41 in Formulation D22, mice, post-dosing) [days]
1 | CCCCCCN(CC(N)=O)C(=O)CN(CC(CC)CCCC)C(=O)CN(CC(CC)CCCC)C(=O)CN(CCCCCC)C(=O)CN(CC(CC)CCCC)C(=O)CN(CC(CC)CCCC)C(=O)CNC(CO)CO (stereo not drawn) [Compound 12] (H-[N(CH(CH2OH)2)Gly][N(2-ethylhexyl)Gly][N(2-ethylhexyl)Gly][NHexGly][N(2-ethylhexyl)Gly][N(2-ethylhexyl)Gly][NHexGly]-NH2) | 0.32 | 91.4 | −8.68 | 52.1 | 1.5 | lowest aRSV expression of the top 4 candidates | – | – | – | –
2 | CCCCCCCCCCCCN(CC(=O)N(CC(=O)N(CC(=O)N(CCCCCCCCCCCC)CC(=O)N(CC(=O)N(CC(N)=O)CC(CC)CCCC)CC(CC)CCCC)CC(CC)CCCC)CC(CC)CCCC)C(=O)CNC(CO)CO (stereo not drawn) [Compound 31] (H-[N(CH(CH2OH)2)Gly][Gly(N-dodecyl)][N(2-ethylhexyl)Gly][N(2-ethylhexyl)Gly][Gly(N-dodecyl)][N(2-ethylhexyl)Gly][N(2-ethylhexyl)Gly]-NH2) | 0.1 | 80.8 | −11.2 | 5.8 | 2 | – | within error | – | – | –
3 | CCCCCCCCCCCCN(CC(=O)N(CC(N)=O)CC(CC)CCCC)C(=O)CN(CCCCCC)C(=O)CN(CC(CC)CCCC)C(=O)CN(CCCCCCCCCCCC)C(=O)CN(CCCCCC)C(=O)CNC(CO)CO (stereo not drawn) [Compound 34] (H-[N(CH(CH2OH)2)Gly][NHexGly][Gly(N-dodecyl)][N(2-ethylhexyl)Gly][NHexGly][Gly(N-dodecyl)][N(2-ethylhexyl)Gly]-NH2) | 0.093 | 118.4 | −9.58 | 11.8 | 27.6 | highest levels of secreted protein expression | – | – | – | –
4 | CCCCCCCCCCCCN(CC(=O)N(CC(=O)N(CC(=O)N(CCCCCCCCCCCC)CC(=O)N(CC(N)=O)CC(CC)CCCC)CC(CC)CCCC)CC(CC)CCCC)C(=O)CN(CC(CC)CCCC)C(=O)CNC(CO)CO (stereo not drawn) [Compound 41] (H-[N(CH(CH2OH)2)Gly][N(2-ethylhexyl)Gly][Gly(N-dodecyl)][N(2-ethylhexyl)Gly][N(2-ethylhexyl)Gly][Gly(N-dodecyl)][N(2-ethylhexyl)Gly]-NH2) | 0.15 | 75.7 | −5.38 | 4.5 | 2.9 | – | within error | highest levels of secreted protein expression; also recorded: highest overall aRSV titers | generally linear dependence on injected dose | > 5
